Like-named read-outs stand apart in the source and are kept apart here.
What was measured:
cyp2b1 [1] = target: T1, cyp2b1 (Rattus norvegicus, UniProt P00176); experiment: Mechanism of inhibition (Lineweaver-Burk plots), bupropion in RLMs; type: in vitro ADME; parameters: from tissue; host or cells: rat liver microsomes, prepared in-house
T1 sequence (P00176 1-491): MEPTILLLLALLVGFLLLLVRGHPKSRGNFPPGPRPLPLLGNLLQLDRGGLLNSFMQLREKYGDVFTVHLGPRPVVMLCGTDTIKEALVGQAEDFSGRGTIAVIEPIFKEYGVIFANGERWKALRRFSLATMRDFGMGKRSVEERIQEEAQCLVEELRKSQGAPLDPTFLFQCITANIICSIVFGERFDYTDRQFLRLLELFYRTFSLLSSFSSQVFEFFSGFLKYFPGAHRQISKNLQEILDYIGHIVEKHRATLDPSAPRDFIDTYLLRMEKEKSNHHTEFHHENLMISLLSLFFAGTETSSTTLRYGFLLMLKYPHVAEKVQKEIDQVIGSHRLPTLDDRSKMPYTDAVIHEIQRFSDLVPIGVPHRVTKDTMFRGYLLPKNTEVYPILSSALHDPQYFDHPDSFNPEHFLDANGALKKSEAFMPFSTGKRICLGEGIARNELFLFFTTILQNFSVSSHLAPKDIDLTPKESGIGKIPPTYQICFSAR
Procedure: To elucidate the mechanism of inhibition of cyp2b1 and 2c11 by poziotinib, we examined the interaction of different concentrations of poziotinib with bupropion and tolbutamide, respectively. Poziotinib was preincubated with 1 mg/ml of RLMs and probe substrate in a 37°C shaking water bath for 5 min, following which NADPH was added and incubated for 30 min. The concentrations of poziotinib were 0, 2, 4, 8 and 16 μM for 2b1, 0, 5, 10 20 and 40 μM for 2c11. The concentrations of bupropion were 5, 10, 20, and 40 μM, and the concentrations of tolbutamide were 25, 50, 100, and 200 μM. Poziotinib was incubated with different concentrations of the probe substrates in triplicate. The reactions were carried out, stopped, and processed as described in 2.3. Lineweaver-Burk plots were graphed.

cyp2e1 [2] = experiment: Effect of poziotinib on cyp2e1 activity in rats (chlorzoxazone pharmacokinetics); type: in vivo, Sprague-Dawley rats; conditions: poziotinib 5 mg/kg oral 7 days, chlorzoxazone probe
Procedure: (§2) Twelve male Sprague-Dawley rats (230 ± 20 g) were randomly divided into treated and control groups, with 6 in each group. […] The supernatant was mixed with 200 μL of acetonitrile and 20 μL of 0.5 μg/ml diazepam (IS), vortexed for 30 s, centrifuged at 13,000 rpm for 5 min, and the supernatant was injected into the UPLC-MS/MS system for analysis.
(§3) Pharmacokinetic parameters were calculated using DAS software (Version 3.2.8). SPSS software (version 16.0; SPSS Inc., Chicago, IL, United States) was used to analyze the significance of differences between the main pharmacokinetic parameters. p < 0.05 was considered statistically significant. GraphPad (version 8.0; GraphPad Software Inc., San Diego, CA, United States) was used to calculate IC50 and plot the plasma concentration-time curves and inhibition plots (type of inhibition, time- and concentration-dependence).

cyp1a2 = experiment: Effect of poziotinib on cyp1a2 activity in rats (phenacetin pharmacokinetics); type: in vivo, Sprague-Dawley rats; conditions: poziotinib 5 mg/kg oral 7 days, phenacetin probe
Procedure: as §2, §3

cyp2c11 = target: T2, cyp2c11 (Rattus norvegicus, UniProt P08683); experiment: Cocktail method IC50 in rat liver microsomes, tolbutamide probe; type: in vitro ADME; parameters: from tissue; host or cells: rat liver microsomes, prepared in-house
T2 sequence (P08683 1-500): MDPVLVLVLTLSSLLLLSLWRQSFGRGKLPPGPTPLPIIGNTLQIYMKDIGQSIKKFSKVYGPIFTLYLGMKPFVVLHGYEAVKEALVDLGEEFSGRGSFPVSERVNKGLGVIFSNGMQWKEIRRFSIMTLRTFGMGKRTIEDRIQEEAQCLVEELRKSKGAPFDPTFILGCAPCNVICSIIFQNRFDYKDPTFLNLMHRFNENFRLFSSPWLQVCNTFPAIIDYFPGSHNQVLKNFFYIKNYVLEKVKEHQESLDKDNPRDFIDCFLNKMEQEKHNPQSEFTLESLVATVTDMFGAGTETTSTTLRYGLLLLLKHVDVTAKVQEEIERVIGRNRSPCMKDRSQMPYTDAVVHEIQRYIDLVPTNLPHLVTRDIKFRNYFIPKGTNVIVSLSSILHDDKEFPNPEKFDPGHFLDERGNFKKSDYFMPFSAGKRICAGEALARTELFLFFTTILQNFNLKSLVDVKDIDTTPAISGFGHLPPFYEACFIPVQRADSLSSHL
Procedure: (§1) The cocktail method was employed to analyze the effects of poziotinib on cyp1a2, cyp2b1, cyp2c11, cyp2d1, cyp2e1, and cyp3a1/2. […] Then half-maximal inhibitory concentration (IC50) of poziotinib was determined with all of the CYPs. […]. To this cocktail, 1 mg/ml of RLMs, 100 mM potassium phosphate buffer (pH 7.4), poziotinib (1, 2.5, 5, 10, 25, 50, or 100 μM) were added to obtain a final volume of 200 μL. After pre-incubation of this mixture for 5 min in a shaking water bath at 37°C, 1 mM NADPH was added to start the reaction. The reactions were allowed to proceed for 30 min, after which 200 μL of acetonitrile and 20 μL of IS were added to terminate the reactions. The mixtures were vortexed for 30 s and centrifuged again at 13,000 rpm for 5 min.

cyp2e1 [3] = target: T3, cyp2e1 (Rattus norvegicus, UniProt P05182); experiment: Cocktail method IC50 in rat liver microsomes, chlorzoxazone probe; type: in vitro ADME
T3 construct: To this cocktail, 1 mg/ml of RLMs; from tissue; host or cells: rat liver microsomes, prepared in-house
Procedure: as §1

cyp2b1 [4] = target: T1, cyp2b1; experiment: Time- and concentration-dependent inhibition in RLMs, bupropion; type: in vitro ADME; parameters: from tissue; host or cells: rat liver microsomes, prepared in-house
Procedure: A mixture containing 1 mg/ml of RLMs, different concentrations of poziotinib (0, 2, 4, 8 and16 μM for 2b1; 0, 5, 10 20 and 40 μM for 2c11), and NADPH was pre-incubated at 37°C for 0, 5, 10, and 20 min; Methanol instead of poziotinib was performed as control. Then 20 μM bupropion or 100 μM tolbutamide was added and incubated at 37°C for 30 min. The reactions were carried out and analyzed in triplicate as described in 2.3.

T3 sequence (P05182 whole entry): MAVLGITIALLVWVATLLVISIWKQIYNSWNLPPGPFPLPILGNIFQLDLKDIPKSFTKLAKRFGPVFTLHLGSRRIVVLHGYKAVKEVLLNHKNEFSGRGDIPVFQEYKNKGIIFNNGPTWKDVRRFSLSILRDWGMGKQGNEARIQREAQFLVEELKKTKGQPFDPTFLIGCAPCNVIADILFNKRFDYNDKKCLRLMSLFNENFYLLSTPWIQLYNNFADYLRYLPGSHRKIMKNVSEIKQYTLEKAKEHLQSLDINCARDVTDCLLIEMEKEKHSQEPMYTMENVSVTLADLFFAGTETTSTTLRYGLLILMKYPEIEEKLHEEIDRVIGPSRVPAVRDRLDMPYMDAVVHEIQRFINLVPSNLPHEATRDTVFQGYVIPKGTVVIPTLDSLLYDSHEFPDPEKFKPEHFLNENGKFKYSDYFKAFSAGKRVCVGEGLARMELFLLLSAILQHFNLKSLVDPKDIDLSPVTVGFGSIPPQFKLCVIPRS

## C=CC(=O)N1CCC(Oc2cc3c(Nc4ccc(Cl)c(Cl)c4F)ncnc3cc2OC)CC1 [Poziotinib]
cyp2b1 [1]; Lineweaver-Burk plots
  type of inhibition of cyp2b1: competitive
cyp2b1 [1]; rat liver microsomes, bupropion 5-40 μM, poziotinib 0-16 μM, secondary plot
  Ki: 16.2 µM
cyp2e1 [2]
  effect on cyp2e1 activity in rats: induced cyp2e1 activity
cyp1a2
  effect on cyp1a2 activity in rats: induces cyp1a2 activity
cyp2c11
  inhibitory effect on cyp2c11 (in words): strong
cyp2c11; 100 μM tolbutamide, cocktail, 30 min, read-out: IC50
  IC50: 20.2 µM
cyp2c11; classes after Jin et al., 2015, read-out: inhibition class by IC50, CYP2C11
  IC50: > 10 µM
cyp2e1 [3]
  inhibitory effect on cyp2e1 (in words): did not show any obvious inhibitory effect
cyp2e1 [3]; 40 μM chlorzoxazone, cocktail, 30 min
  IC50: 156 µM
cyp2e1 [3]; listed as poziotinib
  inhibitory effect on cyp2e1 (in words): not obvious
cyp2b1 [4]; pre-incubation 0, 5, 10, 20 min, poziotinib 2-16 μM
  time- and concentration-dependent inhibition of cyp2b1: no time- or concentration-dependent inhibitory effects
cyp2b1 [4]; pre-incubation 0, 5, 10, 20 min with NADPH
  reversibility of inhibition of cyp2b1: reversible

Source: article PMC7970697, “Inhibition and Induction by Poziotinib of Different Rat Cytochrome P450 Enzymes In Vivo and in an In Vitro Cocktail Method” (Frontiers in Pharmacology, 2021)
